From article PMC11484510, “Antibacterial activity of structurally diverse natural prenylated isobavachalcone derivatives” (RSC Advances, 2024)
Converted amounts (≈) assume the structure as drawn. Where two headings read alike, the source gives them in different places.

Experiments:
MRSA ATCC 15187 [1] = assay: MBC, plating on MHA; format: cell-based, Methicillin-resistant S. aureus; conditions: Staphylococcus aureus; more than 99.9% of the cells killed; read-out: Minimum bactericidal concentration (MBC) MRSA
Source text: (§1) The bacterial strains S. aureus ATCC 29213, MRSA ATCC 15187, E. coli ATCC 25922, and P. aeruginosa ATCC 27853 were obtained from ATCC (American Type Culture Collection). Cation-adjusted Mueller–Hinton broth (MHB; Becton–Dickinson, Cockeysville, MD) was used to determine the minimum inhibitory concentration (MIC). Mueller–Hinton agar (MHA; Becton–Dickinson) was used for minimum bactericidal concentration (MBC) studies. Alamar blue (Himedia) was used to detect the MIC value.
MBC is defined as the lowest concentration of the compound at which more than 99.9% of the cells were killed compared with the growth control. The minimum compound concentration at which no visible bacterial growth was observed was taken as the Minimum Bactericidal Concentration (MBC).[50]

[2] = Cell viability assay (MTT); format: cell-based, murine; conditions: mouse, RAW 264.7 macrophage cells; RAW 264.7 macrophage cell line, MTT assay
Description: RAW 264.7 cells were acquired from the American type culture collection (ATCC, Manassas, VA) and cultured in Dulbecco's modified eagle's medium (DMEM, Gibco, Life Technologies, NY) supplemented with 10% fetal bovine serum (FBS) at 37 °C and 5% CO2. MTT dye (Himedia) was used to detect CC50 values. The antibiotics ciprofloxacin hydrochloride monohydrate (Himedia), kanamycin sulfate (Himedia), and vancomycin (Himedia) were used for reference in microbiological assays.
The effect of compounds (IBC, IBC-2, and IBC-3) on the viability of cells was evaluated at different concentrations against macrophage cell lines through the 3-(4,5-dimethylthiazol2-yl)-2, 5-diphenyltetrazolium bromide (MTT) assay. The RAW 264.7 cells are monocyte/macrophage-like cells originating from an Abelson leukemia virus-transformed cell line derived from BALB/c mice. Due to their reliability and consistency, these cell lines are widely utilized for both in vitro and in vivo analyses.[52] The MTT assay is a colorimetric assay used to measure the viability and cytotoxicity of cells. The cells (2 × 10^4 cells per well) were grown at 37 °C with 5% CO2 for 48 hours, then exposed to compounds with different concentrations. […] After 20–21 hours, 20 μL of MTT dye at 2.5 mg mL^−1 concentration was added to each well and incubated for 4 hours. 100 μL DMSO solubilized the water-insoluble purple and white formazan produced.[53] The formation of the formazan salt by mitochondrial dehydrogenases was measured at 570.0 nm after incubating for 20 min. The percentage cytotoxicity was calculated with respect to the untreated cells, and the CC50 value was calculated. CC50 was defined as the concentration of an inhibitor that reduces cellular activities by 50% compared to untreated control cultures. The CC50 values were calculated as the concentration where the absorbance was reduced by 50% using GraphPad Prism software.[54] The selectivity index (SI) determines the safety profile of the compound. It is calculated as the ratio of compound concentration at which 50% of cell growth is inhibited compared to untreated cells (CC50) to the effective inhibiting concentration against bacterial strain (MIC). The high SI (>10 fold of MIC) of a drug is proven to have a favorable safety profile.[28] Selectivity index (SI) = CC50 of the compound (μM)/MIC of the compound (μM).

MRSA ATCC 15187 [3] = assay: MIC, broth microdilution (CLSI), Alamar blue; format: cell-based, Methicillin-resistant S. aureus; conditions: MRSA ATCC 15187, 24 hours at 37 °C, read-out: Minimum inhibitory concentration (MIC) MRSA
Source text: as §1
The antibacterial activity of the compounds against S. aureus ATCC 29213, MRSA ATCC 15187, E. coli ATCC 25922, and P. aeruginosa ATCC 27853 was determined through a broth microdilution method according to the guidelines of the Clinical and Laboratory Standards Institute (CLSI).[50] […] Growth control and media control were employed along with 2% DMSO as vehicle control.
In a 96-well flat bottom plate, the test compounds were two-fold serially diluted in Mueller Hinton Broth (MHB). The final concentrations of the compounds ranged from 100 to 0.08 μM. 100 μL of standardized bacterial inoculum with turbidity equivalent to 0.5 McFarland standard (1.5 × 10^8 CFU mL^−1) was diluted 1 : 100 (1.5 × 10^6 CFU mL^−1) in Mueller Hinton Broth and inoculated in the plates.[51] The plates were incubated for 24 hours at 37 °C. After incubation, 10 μL of freshly prepared Alamar blue (Himedia) was added to each well of the plate, and plates were further incubated at 37 °C for 30 minutes. After incubation, the fluorescence was measured at excitation/emission of 540–570/580–610 nm. The percentage inhibition and viability were calculated for the controls, and the Gompertz curve was utilized to estimate the minimum inhibitory concentration.

S. aureus = assay: Combinational study (checkerboard microdilution) with standard drugs; format: cell-based; conditions: S. aureus
Description: The Fractional Inhibitory Concentration Index (FICI) was calculated for each test compound and reference drug to find the combinational effect.
In a 96-well flat bottom plate, the reference drug with 4× MIC was serially diluted horizontally. The test compounds with 4× MIC were serially diluted two-fold outside the plate in 1.5 mL Eppendorf's using Mueller Hinton Broth (MHB). These two serially diluted compounds were combined to create drug-compound combinations in the plate. The reference drug (horizontally) and tested compounds (vertically) alone were serially diluted for MIC determination. 100 μL of the standardized bacterial inoculum with a turbidity equivalent to a 0.5 McFarland standard were diluted 1 : 100 in Mueller Hinton Broth and inoculated in the plates. The plates were incubated for 24 hours at 37 °C. After incubation, 10 μL of freshly prepared Alamar blue (Himedia) was added to each well of the plate, and the plates were further incubated at 37 °C for 30 minutes. After incubation, the plates were visually observed. […] The FICI was calculated using the formula FICI = FIC of compound + FIC of drug. The calculation followed is FICI (CA/(MICA)) + (CB/(MICB)), where CA is the MIC of the compound in combination, CB is the MIC of the drug in combination, and MICA and MICB are the MIC values of individual compounds and drugs, respectively. The range selection followed the interpretation criteria. The FICI range of 0.5 to 4 indicates indifference, ≤ or =0.5 indicates synergy and >4 indicates antagonism.[57]

Structure (SMILES): CC(C)=CCc1c(O)ccc2c1O/C(=C\c1ccc(O)cc1)C2=O [IBC-3, (Z)-6-hydroxy-2-(4-hydroxybenzylidene)-7-(3-methylbut-2-en-1-yl)benzofuran-3(2H)-one]
- MBC (MRSA ATCC 15187 [1]): 25 µM (≈ 8.06 µg/mL)
- CC50 [2]: 50 µM
- MIC (MRSA ATCC 15187 [3]): 6 µM (≈ 1.93 µg/mL)
- MIC (MRSA ATCC 15187 [3]; Staphylococcus aureus): 6 µM (≈ 1.93 µg/mL)
- MIC combination (compound) (S. aureus; MIC of the compound in combination with ciprofloxacin): 5 µM
- MIC combination (compound) (S. aureus; MIC of the compound in combination with vancomycin): 5 µM
- MIC (S. aureus; Staphylococcus aureus, checkerboard, substance alone, read-out: MIC alone): 10 µM
- Outcome of combination (S. aureus; compound with ciprofloxacin): Indifference (The FICI range of 0.5 to 4 indicates indifference)
- ∑ FICI (S. aureus; compound with ciprofloxacin): 1
- ∑ FICI (S. aureus; compound with vancomycin): 0.5
